pIC50: −log10 of the molar value. The source made the active and inactive calls. The calls are words filed in the database; no cut-off is given here.
Key:
SK-HEP1 [1] = experiment: Induction of apoptosis in human SK-Hep1 cells assessed as necrotic cells at 10 nM incubated for 24 hrs by annexin V-FITC/PI staining flow cytometry (reference value: 0.73 %); type: functional
Huh-7 [2] = experiment: Induction of apoptosis in human Huh-7 cells assessed as late apoptotic cells at 80 nM incubated for 24 hrs by annexin V-FITC/PI staining flow cytometry (reference value: 1.33 %); type: functional
SK-HEP1 [3] = experiment: Induction of cell cycle arrest in human SK-Hep1 cells assessed as accumulation at G1 phase at 40 nM treated for 24 hrs by PI staining based flow cytometry (reference value: 58.47 %); type: functional
SK-HEP1 [4] = experiment: Inhibition of cell invasion in human SK-HEP1 cells at 3 to 18 nM incubated for 24 hrs by matrigel based assay; type: functional; conditions: dose 3-18 nM
[5] = Induction of apoptosis in rat HSC-T6 cells assessed as late apoptotic cells at 40 nM pretreated with TGFbeta-1 for 1 day followed by compound addition and measured after 24 hrs by flow cytometry (reference value: 1.76 %); type: functional
SK-HEP1 [6] = experiment: Induction of cell cycle arrest in human SK-Hep1 cells assessed as accumulation at S phase at 10 nM treated for 24 hrs by PI staining based flow cytometry (reference value: 24.98 %); type: functional
SK-HEP1 [7] = experiment: Induction of apoptosis in human SK-Hep1 cells assessed as chromatin agglutination incubated for 24 hrs by Giemsa staining based microscopy; type: functional, cell-based; conditions: dose 12-60 nM, DDE = dose-dependent effect
HSC-T6 = experiment: Antiproliferative activity against TGF-beta-1-stimulated rat HSC-T6 cells assessed as suppression of cell proliferation at 0.70 to 60 uM preincubated with TGFbeta-1 for 1 day followed by compound addition and measured after 48 hrs; type: functional, cell-based; conditions: dose 0.7-60 µM
HCCLM9 = experiment: Antiproliferative activity against human HCCLM9 cells treated for 72 hrs by MTT assay; type: functional, cell-based; conditions: HCCLM9, 72 h
Huh-7 [8] = experiment: Antiproliferative activity against human Huh-7 cells assessed as inhibition of cell viability by MTT assay; type: functional, cell-based; conditions: time 24-72 hrs, TDE = time-dependent effect
SK-HEP1 [9] = experiment: Induction of apoptosis in human SK-Hep1 cells assessed as cell membrane permeability by measuring blue fluorescence incubated for 24 hrs by Hoechst staining based microscopy; type: functional; conditions: dose 12-60 nM, DDE = dose-dependent effect
SK-HEP1 [10] = experiment: Induction of apoptosis in human SK-Hep1 cells assessed as early apoptotic cells at 40 nM incubated for 24 hrs by annexin V-FITC/PI staining flow cytometry (reference value: 0.30 %); type: functional
Huh-7 [11] = experiment: Induction of apoptosis in human Huh-7 cells assessed as cell shrinkage incubated for 24 hrs by Giemsa staining based microscopy; type: functional; conditions: dose 12-60 nM, DDE = dose-dependent effect
SMMC-7721 = experiment: Antiproliferative activity against human SMMC-7721 cells treated for 72 hrs by MTT assay; type: functional, cell-based; conditions: SMMC-7721, 72 h
SK-HEP1 [12] = experiment: Induction of apoptosis in human SK-Hep1 cells assessed as late apoptotic cells at 80 nM incubated for 24 hrs by annexin V-FITC/PI staining flow cytometry (reference value: 1.13 %); type: functional
SK-HEP1 [13] = experiment: Antiproliferative activity against human SK-HEP1 cells treated for 72 hrs by MTT assay; type: functional, cell-based; conditions: SK-HEP1, 72 h
Huh-7 [14] = experiment: Induction of apoptosis in human Huh-7 cells assessed as cytoskeleton disintegration incubated for 24 hrs by Giemsa staining based microscopy; type: functional, cell-based; conditions: dose 12-60 nM, DDE = dose-dependent effect
SK-HEP1 [15] = experiment: Induction of cell cycle arrest in human SK-Hep1 cells assessed as accumulation at G2 phase at 80 nM treated for 24 hrs by PI staining based flow cytometry (reference value: 16.55 %); type: functional
Huh-7 [16] = experiment: Induction of apoptosis in human Huh-7 cells assessed as necrotic cells at 40 nM incubated for 24 hrs by annexin V-FITC/PI staining flow cytometry (reference value: 1.08 %); type: functional
[17] = Induction of apoptosis in rat HSC-T6 cells assessed as necrotic cells at 80 nM pretreated with TGFbeta-1 for 1 day followed by compound addition and measured after 24 hrs by flow cytometry (reference value: 0.56 %); type: functional
[18] = biological target: T1, DNA topoisomerase 1 (Homo sapiens) (UniProt P11387); experiment: Inhibition of Top1 (unknown origin) assessed as inhibition of relaxation of supercoiled pBR322 plasmid DNA at 12.5 uM incubated for 25 mins by ethidium bromide staining based agarose gel electrophoresis analysis relative to control
T1 sequence (whole entry): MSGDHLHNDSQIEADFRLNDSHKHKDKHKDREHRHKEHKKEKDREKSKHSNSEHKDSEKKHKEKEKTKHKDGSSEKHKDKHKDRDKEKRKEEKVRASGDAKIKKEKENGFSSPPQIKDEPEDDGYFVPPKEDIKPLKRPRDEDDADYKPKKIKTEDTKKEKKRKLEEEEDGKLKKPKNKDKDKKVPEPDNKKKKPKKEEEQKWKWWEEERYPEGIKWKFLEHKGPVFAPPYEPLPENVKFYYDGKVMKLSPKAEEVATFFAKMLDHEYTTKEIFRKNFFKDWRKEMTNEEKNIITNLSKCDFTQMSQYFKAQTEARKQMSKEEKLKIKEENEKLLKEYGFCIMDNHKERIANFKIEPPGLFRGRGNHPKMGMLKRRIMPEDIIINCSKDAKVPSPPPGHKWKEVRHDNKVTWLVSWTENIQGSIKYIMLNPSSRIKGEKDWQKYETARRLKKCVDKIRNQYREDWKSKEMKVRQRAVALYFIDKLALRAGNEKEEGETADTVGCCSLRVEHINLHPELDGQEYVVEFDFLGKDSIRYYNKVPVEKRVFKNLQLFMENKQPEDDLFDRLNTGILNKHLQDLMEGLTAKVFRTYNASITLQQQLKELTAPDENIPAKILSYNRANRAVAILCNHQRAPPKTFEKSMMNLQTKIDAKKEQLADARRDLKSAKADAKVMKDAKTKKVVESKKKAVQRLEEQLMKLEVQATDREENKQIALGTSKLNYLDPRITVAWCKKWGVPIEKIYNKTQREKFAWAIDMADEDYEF

Huh-7 [19] = experiment: Antiproliferative activity against human Huh-7 cells treated for 72 hrs by MTT assay; type: functional, cell-based; conditions: Huh-7, 72 h
Huh-7 [20] = experiment: Inhibition of cell migration in human Huh-7 cells at 3 to 18 nM incubated for 24 hrs by crystal violet staining based transwell assay; type: functional; conditions: dose 3-18 nM
Huh-7 [21] = experiment: Induction of ROS generation in human Huh-7 cells incubated for 24 hrs by DCFH2-DA probe based flow cytometry; type: functional, cell-based; conditions: dose 10-80 nM, DDE = dose-dependent effect
SK-HEP1 [22] = experiment: Induction of apoptosis in human SK-Hep1 cells assessed as late apoptotic cells at 10 nM incubated for 24 hrs by annexin V-FITC/PI staining flow cytometry (reference value: 1.13 %); type: functional
SK-HEP1 [23] = experiment: Induction of cell cycle arrest in human SK-Hep1 cells assessed as accumulation at G1 phase at 80 nM treated for 24 hrs by PI staining based flow cytometry (reference value: 58.47 %); type: functional
SK-HEP1 [24] = experiment: Induction of apoptosis in human SK-Hep1 cells assessed as necrotic cells at 80 nM incubated for 24 hrs by annexin V-FITC/PI staining flow cytometry (reference value: 0.73 %); type: functional
Huh-7 [25] = experiment: Induction of cell cycle arrest in human Huh-7 cells assessed as accumulation at G2 phase at 10 nM treated for 24 hrs by PI staining based flow cytometry (reference value: 15.90 %); type: functional

Row | Compound | Activity (SK-HEP1 [1]) [%] | Activity (Huh-7 [2]) [%] | Activity (SK-HEP1 [3]) [%] | inhibition (SK-HEP1 [4]) | Activity [5] [%] | Activity (SK-HEP1 [6]) [%] | Activity (SK-HEP1 [7]) | Activity (HSC-T6) | pIC50 (HCCLM9) | Activity (Huh-7 [8]) | Activity (SK-HEP1 [9]) | Activity (SK-HEP1 [10]) [%] | Activity (Huh-7 [11]) | pIC50 (SMMC-7721) | Activity (SK-HEP1 [12]) [%] | pIC50 (SK-HEP1 [13]) | Activity (Huh-7 [14]) | Activity (SK-HEP1 [15]) [%] | Activity (Huh-7 [16]) [%] | Activity [17] [%] | other results
1 | O=C1c2cc(F)cc(F)c2N(c2cccc(F)c2)C2c3[nH]c4ccc(O)cc4c3CCN12 (stereo unspecified) | 2.39 | 30 | 21.83 | Active | 10.4 | 18.42 | Dde | Active | 6.96 | Tde | Dde | 8.02 | Dde | 7.05 | 15.4 | 7.15 | Dde | 83.92 | 4.51 | 3.62 | inhibition [18]: 43.9%; pIC50 (Huh-7 [19]): 7.40; inhibition (Huh-7 [20]): Active; Activity (Huh-7 [21]): Dde; Activity (SK-HEP1 [22]): 3.83%; Activity (SK-HEP1 [23]): 11.58%; Activity (SK-HEP1 [24]): 2.39%; Activity (Huh-7 [25]): 26.52%
2 | CC(=O)Oc1ccc2[nH]c3c(c2c1)CCN1C(=O)c2cc(F)cc(F)c2N(c2cccc(F)c2)C31 (stereo unspecified) | 0.58 | 29.4 | 25.35 | Active | 12.8 | 19.4 | Dde | Active | 7.00 | Tde | Dde | 8.25 | Dde | 7.10 | 19.5 | 7.22 | Dde | 76.35 | 10.1 | 4.44 | inhibition [18]: 56.1%; pIC50 (Huh-7 [19]): 7.52; inhibition (Huh-7 [20]): Active; Activity (Huh-7 [21]): Dde; Activity (SK-HEP1 [22]): 7.45%; Activity (SK-HEP1 [23]): 19.76%; Activity (SK-HEP1 [24]): 2.63%; Activity (Huh-7 [25]): 13.54%
